# Test results as given in PubChem BioAssay (NCI).
#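 1) Cells in 96-well plates. 2) Compound, 48 h, 5 concentrations. 3) Linear interpolation between surrounding doses. 4) Unreached endpoint = highest concentration. At the TGI there is no net growth.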
# Legend:
# Assay in all cases: inhibition of tumour cell growth, NCI panel, 48 h
# [1] = test system: CCRF-CEM leukemia
# [2] = test system: DU-145 prostate
# [3] = test system: HCT-15 colon
# [4] = test system: HT29 colon
# [5] = test system: MDA-N
# [6] = test system: OVCAR-3 ovarian
# [7] = test system: PC-3 prostate
# [8] = test system: SF-539 CNS
# [9] = test system: SK-OV-3 ovarian
# [10] = test system: SNB-19 CNS
Structure (SMILES),TGI [1],TGI [2],TGI [3],TGI [4],TGI [5],TGI [6],TGI [7],TGI [8],TGI [9],TGI [10]
C/C(=N\N=C1/C(=O)OC(c2ccccc2)=C1C(=O)c1ccccc1)c1ccc([N+](=O)[O-])cc1,75.1 µM,> 100 µM,67.6 µM,> 100 µM,> 100 µM,> 100 µM,> 100 µM,> 100 µM,> 100 µM,> 100 µM
Cc1c2cc[n+](C)c(C)c2cc2c1[nH]c1ccccc12,75.3 µM,> 78 µM,> 100 µM,83.8 µM,> 93.8 µM,57.7 µM,> 100 µM,46.2 µM,89.2 µM,7.22 µM
CCOC(=O)c1cccc(N=Nc2nc[nH]c2/C=C/C(=O)OC)c1,> 100 µM,> 100 µM,> 100 µM,> 100 µM,> 100 µM,> 100 µM,> 100 µM,> 100 µM,> 100 µM,> 100 µM
COC(=O)C(Cc1ccc2c(c1)CCC2)Cc1ccc2c(c1)CCC2,> 100 µM,> 100 µM,> 100 µM,> 100 µM,> 100 µM,> 100 µM,> 100 µM,> 100 µM,> 100 µM,> 100 µM
CC(=NNC(=S)Nc1ccccc1)c1cccc(C(C)=NNC(=S)Nc2ccccc2)n1,> 100 µM,> 100 µM,> 100 µM,> 100 µM,> 100 µM,> 28.5 µM,> 100 µM,12.5 µM,> 84.5 µM,> 100 µM
Cc1ccc(S(=O)(=O)n2c3c(c4ccccc42)CCN2C[C@H]([C@H](C)Br)CC[C@@H]32)cc1,> 100 µM,> 100 µM,> 100 µM,> 100 µM,> 100 µM,> 100 µM,> 100 µM,> 100 µM,> 100 µM,> 100 µM
O=C(O)c1ccccc1CC(Cc1ccc2c(c1)CCC2)C(=O)O (stereo not given),> 100 µM,> 100 µM,> 100 µM,> 100 µM,> 100 µM,> 100 µM,> 100 µM,> 100 µM,> 100 µM,> 100 µM
COc1ccc(C2OC(c3ccncc3)=NN2C)cc1F (stereo not given),> 100 µM,> 100 µM,> 100 µM,> 100 µM,> 100 µM,> 100 µM,> 100 µM,> 100 µM,> 100 µM,> 100 µM
O=C(O)CN1CCN2CCCCCN(CC1)CCN(CC(=O)O)CC2,> 100 µM,> 100 µM,> 100 µM,> 100 µM,> 100 µM,> 100 µM,> 100 µM,> 100 µM,> 100 µM,> 100 µM
O=C1NC2c3c(I)sc(I)c3C(O)C2O1 (stereo not given),> 100 µM,> 100 µM,> 100 µM,> 100 µM,> 100 µM,> 100 µM,> 100 µM,> 100 µM,> 100 µM,> 100 µM
NCCCN1c2ccccc2Sc2ccc(Cl)cc21,> 10 µM,> 10 µM,> 10 µM,> 6.59 µM,> 5.98 µM,> 10 µM,> 10 µM,> 10 µM,> 10 µM,> 10 µM
Cc1cc(/N=C/c2ccc(N(C)C)cc2)n(-c2ccccc2)n1,> 100 µM,> 100 µM,> 100 µM,> 100 µM,> 100 µM,82.4 µM,> 100 µM,> 100 µM,> 100 µM,> 100 µM
O=c1[nH][nH]c(=O)n1CCCCCCn1c(=O)[nH][nH]c1=O,> 100 µM,> 100 µM,> 100 µM,> 100 µM,> 100 µM,> 100 µM,> 100 µM,> 100 µM,> 100 µM,> 100 µM
CCN1CN(c2ccccc2)C2(CCN(CC3COc4ccccc4O3)CC2)C1=O (stereo not given),83.3 µM,> 100 µM,54.2 µM,46.7 µM,6.54 µM,> 100 µM,79.2 µM,33.3 µM,> 100 µM,> 100 µM
C=C1C(=O)CC2C1CC(=O)/C(C)=C/CCC(C)(O)C2O (stereo not given),13.8 µM,19.7 µM,11.5 µM,26.9 µM,2.86 µM,17 µM,23.3 µM,> 24.4 µM,49.8 µM,> 67.1 µM
Clc1ccc(-c2nnc3sc4nc5ccccc5c-4nn23)c(Cl)c1,> 100 µM,> 100 µM,> 100 µM,> 100 µM,82.6 µM,> 100 µM,> 100 µM,> 100 µM,> 100 µM,> 100 µM
O=[N+]([O-])C(=C(Nc1ccccc1)Nc1ccccc1)C(Cl)=C(Cl)Cl,28.1 µM,34.5 µM,32.3 µM,34.6 µM,27.2 µM,33.5 µM,29.6 µM,35.4 µM,68.5 µM,32.9 µM
